For data set [1] the following is noted: literature value, Marsh, CRC Handbook of Lipid Bilayers; cited from earlier work.
Data set [2] can be described thus: Modulated differential scanning calorimetry (MDSC) of hydrated lipid bilayers. The data set is classed as physicochemical. The settings on record: for enthalpy of transition / phase-transition temperature (Tm) of the bilayer: lipid hydrated in water, MDSC. As to the method:
The phase-transition temperatures (Tm) of the bilayers formed by DLRPC, DMRPC and DARPC were determined by modulated differential scanning calorimetry (MDSC). […] For DARPC, the similarity in Tm was not entirely unexpected since tail—tail interactions contribute more to the Tm as the tail length increases. […] At the phase-transition temperature, the bilayer transformed from the gel-liquid crystalline phase in glycerol based phospholipids such as DLPC and DMPC. This endothermic process was observed as two discreet events. A small pre-transition peak, corresponding to the conversion from a lamellar gel (Lβ) phase to rippled gel (Pβ) phase, occurred below a much larger sharp main transition peak corresponding to conversion of the Pβ phase to the liquid crystalline Lα phase. The temperature at which the pre-transition existed as well as the enthalpy of the transition both changed as a function of tail length in a linear pattern. This presence of two well-defined phase transitions was not observed for the carbohydrate-based lipids.
Thermal Analysis of DLRPC 1-2 mgs of lipid were hermetically sealed with […] water in an aluminum pan. The modulation was set to ±1.00° C. every 40 seconds and the pan was equilibrated at −15° C. The temperature was increased at 0.5° C./min to 70° C. where the temperature was held for 2 minutes. The temperature was then reduced to −10° C. and held at this temperature for 2 minutes. This heating-cooling cycle was repeated two more times before the sample was held isothermal at −10° C. for 20 minutes. Integrating under the heat flow peak curve of the main peak provides the enthalpy of the transition. TA Instruments Universal Analysis computer program (available from TA Instruments of New Castle, Del., United States of America) was used to analyze the data. DLRPC has a Tm of 15.75° C. and an enthalpy of 3.3 kcal/mol.
The same modulated differential scanning calorimetry method used on DLRPC was employed to obtain thermotropic data on DMRPC.
The same modulated differential scanning calorimetry method used on DLRPC was employed to obtain thermotropic data on DARPC.
(Differential scanning calorimetry records heat flow against a reference as temperature is scanned.)

For data set [3] the following is noted: glycerol analog, Van Dijck et al.; cited from earlier work.
In another data set the test system is PLA2 (naja naja venom). Nature of the data set: pH-stat phospholipase assay. The data set is classed as biochemical. The settings on record: lipid as substrate, Triton X-100 40 mM, CaCl2 10 mM, 40° C., pH 8.0, PLA2 0.1 units/mL. As to the method:
The pH-stat phospholipase assays were performed on a Metrohm 718 STAT Titrino pH-stat following a procedure described by Yuan et al. (Yuan, W.; Berman, R. J.; Gelb, M. H. J. Am. Chem. Soc. 1987, 109, 8071-8081; Deems, R. A.; Dennis, E. A. Methods Enzym 1981, 71, 703-710.) Before the assays were performed, the pH-stat was calibrated at pH 7 and pH 4. The NaOH (0.01 N) titrant was standardized by titration to pH 8.65 with a weighed amount of potassium hydrogen-phthalate in 40 mL of Dl water. The lipid was transferred to a 5 mL round bottom flask in methylene chloride/methanol (98/2) and the solvent was removed by rotoevaporation. High vacuum then removed trace amounts of remaining solvent. The lipid film was rehydrated with 2 mL of an aqueous solution containing TRITON X-100™ detergent (Sigma Chemical Company, St. Louis, Mo.) (40 mM) and CaCl2 (10 mM) and then sonicated briefly to solubilize the lipids.
Next, the solution was immersed in a temperature-controlled bath at 40° C. and stirred with a magnetic stir bar. A stream of argon was passed over the reaction mixture to prevent CO2 absorption. A microelectrode (Metrohm 6.0224.100 pH 1-11/0-60° C. Idrolyte) was inserted through the top of the reaction vessel along with the dosing tube from the pH-stat. The reaction mixture was adjusted to a pH of 8.2 by addition of NaOH. Next, 0.2 units of PLA2 (naja naja venom, Sigma Chemical Company, St. Louis, Mo.) (0.1 units/mL) was added to the reaction and the reaction started. The pH was allowed to drop to 8.0 and held at this value by addition of NaOH. At pH 8, the fatty acids were almost completely ionized; therefore, the amount of base added as a function of time indicates cleavage of the ester bond.
In this Example, enzymatic activity was recorded using a pH-stat, which maintains a specific pH by adding base during the enzymatic reaction. During these assays, DMPC was hydrolyzed with an initial average rate of 6.19 E-08 (moles NaOH/minute) (std dev 6.72E-10).
Next, whether DMRPC inhibits PLA2 activity was investigated. Using DMPC (5 mM) as a substrate, DMRPC was added to the reaction mixture at varying concentrations. […] With a change in structure, different carbohydrate-based phospholipids could inhibit PLA2.

The nature of data set [4]: Carboxyfluorescein leakage assay of carbohydrosomes. The note with it: vesicles in 20 mM PBS pH 7.4. The class given is physicochemical. The source says: The following procedure is adapted from Weinstein et al. (Weinstein, et al., Self-Quenching of Carboxyfluorescein Fluorescence: Uses in Studying Liposome Stability and Liposome-Cell Interaction; Weinstein, J. N.; et al., Ed.; CRC Press, Inc.: Boca Raton, Fla., United States of Amenica 1984; Vol. 3, pp 183-204.) and was successfully used in DMPC control experiments. Immediately before use, the carbohydrate-based lipid DMRPC, was passed through a C-18 SEP PAK™ column using a solvent system of 10% MeOH/CH3CN. Both the cholesterol and DMRPC were dissolved in chloroform and mixed. The mixtures were dried by rotoevaporation in a 100 mL round bottom flask before being thoroughly dried by high vacuum. […] The size of the liposomes was determined using dynamic light scattering. […] The filtered liposomes were diluted into osmotically equivalent 20 mM PBS buffer at pH 7.4 and the fluorescence intensity was measured over time. […]
As discussed herein above, one of the most wide-spread uses of liposomes is as drug delivery vehicles in warm-blooded vertebrates, including humans. […] In this Example, release of the self-quenching dye 5(6)-carboxyfluorescein (encapsulated in 5 mg/mL) was monitored over time by preparing carboxyfluorescein-containing carbohydrosomes using the high-pressure extrusion method. […]

The conditions of data set [5]: 40 mol % cholesterol; McMullen et al.; cited from earlier work.
Data set [6] is described as follows: MDSC thermal analysis of DLRPA as a function of pH. The class given is physicochemical. The source says: The same modulated differential scanning calorimetry method used on DLRPC was employed to obtain thermotropic data on DLRPA. Instead of using water to hydrate the samples however, the following 5 buffers were utilized: a) 0.1 M KCl/HCl at pH 1.5, b) 0.1 M KCl/HCl at pH 4.14, c) 0.1 M Tris-HCl at pH 7.4, d) 0.01 M sodium borate at pH 8.44, and e) 0.01 M sodium borate at pH 9.5.
The effect of pH on the phase-transition temperature of DLRPA supramolecular structures was probed using modulated differential scanning calorimetry. Experiments were performed in the following 5 solutions: a) 0.1 M KCl/HCl at pH 1.5, b) 0.1 M KCl/HCl at pH 4.14, c) 0.1 M Tris-HCl at pH 7.4, d) 0.01 M sodium borate at pH 8.44, and e) 0.01 M sodium borate at pH 9.5.

Data on 7 compounds can be found in patent US6696081B2, “Carbohydrate based lipid compositions and supramolecular structures comprising same” (Duke University, priority 2000, dated 2004).

Several values for one entry are separate records, joined by “and”; a condition that tells them apart may be missing. Identical values can stand only once. Like-named read-outs stand apart in the source and are kept apart here. Where only a bound is given, the exact number is not on record here.

Take `CCCCCCCCCCCCCCCCCCCC(=O)OC[C@H](COP(=O)([O-])OCC[N+](C)(C)C)OC(=O)CCCCCCCCCCCCCCCCCCC` [DAPC, reference compound]: in data set [1], the “enthalpy of transition (literature)” value is listed as 11.93 kcal/mol. Moreover, in data set [2], the enthalpy of transition was 12.6 ± 0.7 kcal/mol and the “phase-transition temperature (Tm) of the bilayer” value (“phase-transition temperature (Tm)” below) amounted to 66 °C.
`CCCCCCCCCCCC(=O)OC[C@H](COP(=O)(O)O)OC(=O)CCCCCCCCCCC` [DLPA, dilauroyl phosphatidic acid]: in data set [3], the “pH at which the first proton of the phosphate is lost” value is recorded as 3-4 and the “pH at which the second proton of the phosphate is lost” value was ~7.
Consider `CCCCCCCCCCCC(=O)OC[C@H](COP(=O)([O-])OCC[N+](C)(C)C)OC(=O)CCCCCCCCCCC` [DLPC, 1,2-dilauroyl-sn-glycero-3-phosphocholine, reference compound], for which, in data set [2], the enthalpy of transition was found to be 1.5 kcal/mol and the “phase-transition temperature (Tm)” value was −1.1±0.8 °C.
As to `CCCCCCCCCCCC(=O)O[C@H]1[C@H](OC)O[C@H](COP(=O)([O-])OCC[N+](C)(C)C)[C@H]1OC(=O)CCCCCCCCCCC` [DLRPC, Methyl-2,3-di-O-lauroyl-b-D-ribo-5-phosphocholine], the “increase of Tm over the glycerol analog” value in data set [2] (DLRPC vs DLPC, DMRPC vs DMPC) was 16 °C. In addition, in data set [2], the enthalpy of transition is 3.3 ± 0.3 kcal/mol and 3.3 kcal/mol; the “phase-transition temperature (Tm)” value is 15.75±0.05 °C and 15.75 °C.
Take `CCCCCCCCCCCCCC(=O)OC[C@H](COP(=O)([O-])OCC[N+](C)(C)C)OC(=O)CCCCCCCCCCCCC` [DMPC, reference compound]: in the data set on PLA2 (naja naja venom), the “initial average rate of hydrolysis by PLA2” value was 6.19 E-08 moles NaOH/minute and 6.19 E-08 (std. dev. 6.72E-10) moles NaOH/minute. For the same compound, the “enthalpy of transition (literature)” value in data set [1] was 5.9 ± 0.6 kcal/mol. The “release of carboxyfluorescein in the first 20 minutes” value in data set [4] is “release dye over the first 20 minutes”. Further, in data set [2], the enthalpy of transition was found to be 5.6 ± 1.1 kcal/mol and the “phase-transition temperature (Tm)” value was found to be 23.5 °C. Further, in data set [5], the “increase in phase-transition temperature” value is ≤ 17 °C.
Consider “bis-(2,3-lauroyl)-1-methoxy-5-ribo-phosphatidic acid [DLRPA]”, for which the “pH at which the first proton of the phosphate is lost” value in data set [6] (from Tm versus pH profile) was 3-4. Also, in data set [6] (from Tm versus pH profile), the “pH at which the second proton of the phosphate is lost” value is given as ~8.5. The Tm in data set [6] (pH 1.5, 0.1 M KCl/HCl) is ~45 °C; in data set [6] (pH 4.14, 0.1 M KCl/HCl), 34 °C; in data set [6] (pH 7.4, 0.1 M Tris-HCl), 31 °C; in data set [6] (pH 8.4, 0.01 M sodium borate) it was 29 °C; in data set [6] (pH 9.5, 0.01 M sodium borate), ~18 °C.
For “methyl-2,3-di-O-arachadonyl-b-D-ribo-5-phosphocholine [DARPC]”, in data set [2], the enthalpy of transition is 5.1 ± 1.5 kcal/mol and 5.1 kcal/mol; the “phase-transition temperature (Tm)” value is 63.5±0.6 °C and 63.5 °C.
